Molecules are shown by their SMILES.

The target of this test is T1, PlaF (Pseudomonas aeruginosa, UniProt G3XCU7).
T1 construct: gene PA2949; purified PlaF (pBBR-plaFH6, His-tagged) reconstituted into phospholipid liposomes
The experiment in a line: p-NPB esterase assay with purified PlaF; Michaelis-Menten kinetics (Km increased, vmax unchanged). In kind it is biochemical.

T1 sequence (G3XCU7 entry or part of it): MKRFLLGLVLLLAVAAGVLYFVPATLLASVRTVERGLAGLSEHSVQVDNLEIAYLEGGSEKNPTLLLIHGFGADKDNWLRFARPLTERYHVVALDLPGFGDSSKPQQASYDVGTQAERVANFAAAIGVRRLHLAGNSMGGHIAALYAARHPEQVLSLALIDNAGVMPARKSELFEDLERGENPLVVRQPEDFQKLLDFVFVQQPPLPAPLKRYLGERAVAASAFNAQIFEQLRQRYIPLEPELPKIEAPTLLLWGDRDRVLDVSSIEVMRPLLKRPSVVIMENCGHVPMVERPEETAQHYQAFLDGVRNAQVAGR

As a reminder, the inhibition is the share of the control response that was lost under treatment. `O=C(/C=C/c1ccc(/C=C/C(=O)Nc2ccc(C3=NCCN3)cc2)cc1)Nc1ccc(C2=NCCN2)cc1` [GW4869] yielded an inhibition at 69.2 µM of roughly 30%. The molecule `CCN(CC)CCN(Cc1ccc(-c2ccc(C(F)(F)F)cc2)cc1)C(=O)Cn1c(SCc2ccc(F)cc2)nc(=O)c2c1CCC2` [darapladib] came in with an inhibition at 400 µM of roughly 50%. Same read-out and setting: for `COCCN1CCC(N(Cc2ccc(-c3ccc(C(F)(F)F)cc3)cc2)C(=O)Cn2c(SCc3cccc(F)c3F)cc(=O)c3ccccc32)CC1` [rilapladib] the value was roughly 50%.

The values above are taken from paper PMC12955470, “A novel approach to combat Pseudomonas aeruginosa: repurposing pharmaceuticals for inhibition of phospholipase A” (Microbiology Spectrum, 2026).
